Experimental data as given in article PMC8636514, “Therapeutic potential of TRPM8 antagonists in prostate cancer” (Scientific Reports, 2021).

Legend:
[1] = system: C4-2B cells; assay: DNA synthesis (BrdU incorporation) in C4-2B cells; assay type: cell-based, human
Description: (§1) Cells on coverslips were pulsed in vivo with BrdU (Sigma-Aldrich; at 100 μM, final concentration) and left unchallenged or challenged with 10 nM R1881 for 18 h, in the absence or presence of the indicated compounds. Cells were fixed, permeabilized, washed and the BrdU incorporation was analysed as reported. Nuclei were stained with Hoechst and cells on coverslips were scored by IF microscopy, using a DMLB Leica (Leica) fluorescent microscope, equipped with HCX PL Apo 63 × oil objective. Different fields from each coverslip were analyzed and BrdU incorporation was calculated by the formula: percentage of BrdU-positive cells = (No. of BrdU-positive cells/No. of total cells) × 100. Data in the graphs derive from at least 1000 scored cells for each coverslip. Representative images were captured using DC480 camera (Leica) and acquired using Leica Suite software. They are representative of three different experiments.

[2] = system: DU-CaP cells; assay: DNA synthesis (BrdU incorporation) in DU-CaP cells; assay type: cell-based, human; conditions: 10 nM R1881, 18 h, compound 1 μM
Description: as §1

[3] = system: cyclin D1; assay: Western blot of cyclin D1 in LNCaP cells; assay type: cell-based, human; conditions: for Cyclin D1, fold increase over the basal level: 15 h; for androgen-induced up-regulation of cyclin D1: R1881, compound 1 μM
Text: (§2) All performed as reported. The mouse monoclonal anti-AR (441; Santa Cruz) antibody was used in Co-Ip or WB approaches. TRPM8 was detected using the rabbit polyclonal anti-TRPM8 (NBP1-97311; Novus Biological). […] The rabbit polyclonal anti-ERK (C-14; Santa Cruz), antibody was used to detect total ERK. FAK and P-Tyr397 FAK were detected using the mouse monoclonal anti-FAK (Clone 77/610077 BD Transduction Laboratories) or anti P-Tyr397 FAK (Clone 14/611722; BD Transduction Laboratories) antibodies, respectively. P-Tyr118 paxillin and total paxillin were detected using the rabbit polyclonal anti-P-Y118 (#2541, Cell Signaling) or the mouse monoclonal anti-paxillin (clone 349; BD Biosciences) antibodies, respectively. […] P-Tyr 416 Src and Src were detected using the rabbit monoclonal anti P-Tyr 416 Src (#6943; Cell Signaling) or the mouse monoclonal anti Src (Calbiochem) antibodies, respectively. ERα and ERβ were detected using the rabbit polyclonal anti-ERα (543; Santa Cruz) or anti-ERβ (Upstate Biotechnology, U.S.A.) antibodies. Cyclin D1, p27 and Cdk4 were stained using the mouse monoclonal anti-cyclin D1 (clone AM29; from Zymed Laboratories Inc.), the rabbit polyclonal anti-p27 (C-19; Santa Cruz) or anti Cdk-4 (c-22; Santa Cruz) antibodies, respectively. The mouse monoclonal anti-tubulin (Sigma-Aldrich) antibody was used to detect tubulin. The ECL system (GE Healthcare) was employed to reveal immune-reactive proteins. Densitometric analysis of WB was performed by using Image J Software (https://imagej.nih.gov/ij).

[4] = system: p27; assay: Western blot of p27 in LNCaP cells; assay type: cell-based, human; conditions: for P27, fold increase over the basal level: 15 h; for androgen-induced p27 down-regulation: R1881, compound 1 μM
Text: as §2

[5] = system: Cdk4; assay: Western blot of Cdk4 in LNCaP cells; assay type: cell-based, human; conditions: 15 h
Text: as §2

[6] = system: PC3 cells; assay: Wound scratch assay in PC3 cells; assay type: cell-based; conditions: cycling or quiescent cells, 10 nM R1881, compound 1 µM
Description: In wound scratch analysis, 1.8 × 10^5 cells were seeded in a 24-well plate and made quiescent. Cells were then wounded using 10 µl sterile pipette tips and washed with PBS. They were left un-stimulated or stimulated for the indicated times, in the absence or presence of the selected compounds. To avoid cell proliferation, cytosine arabinoside (Sigma-Aldrich) at 50 μM (final concentration) was included in the cell medium. Different fields were analysed by contrast-phase microscopy, as below described in this section. Migration and invasion assays were done as reported. In migration assay, we used 3 × 10^4 cells in collagen pre-coated Boyden’s chambers with 8 μm polycarbonate membrane (Falcon). The indicated stimuli were added to the upper and the lower chambers. […] Migrating and invading cells were scored by fluorescence microscopy, as below described in this section.
In wound scratch assay, different fields were analysed using DMIRB inverted microscope (Leica) equipped with N-Plan 10 × objective (Leica), as reported. LNCaP organoids were analysed using the same microscope equipped with C-Plan 40 × or HCX PL Fluotar 63 × objectives (Leica). […] The relative organoid size was calculated using the same software and expressed as a fold increase over the basal organoid size (measured at 3th day). The wound gap was calculated using Image J Software and expressed as % of the decrease in the wound area. […]

[7] = system: FAK, paxillin; assay: Western blot of FAK activation and paxillin phosphorylation in LNCaP cells; assay type: cell-based, human; conditions: for androgen-elicited FAK activation and paxillin phosphorylation: 10 nM R1881, 10 min; for androgen-elicited FAK activation and paxillin phosphorylation / FAK or paxillin phosphorylation when used alone: compound 1 μM; for FAK or paxillin phosphorylation when used alone: no R1881
Text: as §2

[8] = target: T1, AR/TRPM8 complex (Homo sapiens, UniProt Q7Z2W7); assay: Co-IP of AR with TRPM8 in LNCaP cells; assay type: cell-based; conditions: for androgen-induced Co-IP of AR with TRPM8: 10 nM R1881, 10 min, compound 1 μM; for AR in IP anti-AR, Average (n=3) / TRPM8 in IP anti-AR, Average (n=3): Fig 6d lower panel; for AR, Average (n=3) / TRPM8, Average (n=3): Fig 6e, R1881 alone
T1 construct: We here dissected an endogenous non-genomic mechanism of the TRPM8 channel regulation by androgens in PC cells; endogenous in cells; host or cells: LNCaP cells
T1 sequence (Q7Z2W7 whole entry, one chain of several): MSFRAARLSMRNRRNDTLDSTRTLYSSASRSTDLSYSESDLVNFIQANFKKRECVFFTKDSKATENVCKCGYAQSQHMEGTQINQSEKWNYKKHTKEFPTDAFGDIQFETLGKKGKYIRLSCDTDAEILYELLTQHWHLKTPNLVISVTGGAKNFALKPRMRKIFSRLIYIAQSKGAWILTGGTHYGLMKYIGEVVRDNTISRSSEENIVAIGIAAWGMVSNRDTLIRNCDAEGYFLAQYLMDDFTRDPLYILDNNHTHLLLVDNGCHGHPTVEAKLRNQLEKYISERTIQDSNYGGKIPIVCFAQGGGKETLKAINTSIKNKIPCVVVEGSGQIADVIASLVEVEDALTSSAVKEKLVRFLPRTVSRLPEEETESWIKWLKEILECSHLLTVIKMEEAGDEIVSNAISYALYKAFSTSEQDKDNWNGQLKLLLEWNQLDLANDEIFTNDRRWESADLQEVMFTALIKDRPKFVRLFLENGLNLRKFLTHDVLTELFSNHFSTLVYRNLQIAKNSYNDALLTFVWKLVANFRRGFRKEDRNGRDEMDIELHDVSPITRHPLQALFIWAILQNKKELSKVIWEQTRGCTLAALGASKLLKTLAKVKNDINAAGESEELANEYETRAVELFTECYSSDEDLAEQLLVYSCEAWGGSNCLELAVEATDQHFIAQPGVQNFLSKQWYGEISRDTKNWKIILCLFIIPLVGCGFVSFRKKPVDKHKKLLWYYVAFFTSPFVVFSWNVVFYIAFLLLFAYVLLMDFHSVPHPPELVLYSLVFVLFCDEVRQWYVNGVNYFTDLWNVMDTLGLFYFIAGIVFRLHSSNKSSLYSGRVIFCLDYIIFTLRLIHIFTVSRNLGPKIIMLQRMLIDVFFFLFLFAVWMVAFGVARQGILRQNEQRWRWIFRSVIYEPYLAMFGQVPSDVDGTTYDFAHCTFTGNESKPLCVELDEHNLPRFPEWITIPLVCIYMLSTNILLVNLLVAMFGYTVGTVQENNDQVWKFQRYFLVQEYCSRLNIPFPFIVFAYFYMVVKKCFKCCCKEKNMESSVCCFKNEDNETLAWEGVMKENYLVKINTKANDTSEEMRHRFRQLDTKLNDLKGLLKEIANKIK
Text: as §2

[9] = system: LNCaP cells; assay: Fluorescent Ca2+ imaging (Fluo 4-AM) in LNCaP cells; assay type: cell-based, human; conditions: for androgen-induced increase of intracellular Ca2+ levels: 10 nM R1881, 240 s, compound 1 μM
Description: LNCaP cells in 6 multi-wells were made quiescent and incubated for 60 min at 37 °C with 1 µM 4-Fluo AM (Abcam, ab241082). Cells were washed twice with Hank’s Balanced salt solution (HBSS) to remove any dye non-specifically associated with the cell surface. They were incubated with medium for 30 min to allow complete de-esterification of intracellular AM esters, and then left untreated or treated for 240 s with 10 nM R1881, in the absence or presence of the indicated compounds. Different fields were analyzed using DMIRB Leica (Leica) microscope equipped with C-Plan × 40 or HCX PL Fluotar × 63 objectives (Leica). IF microscopy images were generated using a DFC 450C camera (Leica).

[10] = cycling cells, 18 h, 100 nM and 1 μM
[11] = 1 nM R1881 + compound 1 μM, Fig 2e-f
[12] = 10 nM R1881 + compound 1 μM, Fig 2d
[13] = fourth group of list (probably IP anti-AR)

| Compound | BrdU incorporation [1, 10] | androgen-stimulated BrdU incorporation [2] | Cyclin D1, fold increase over the basal level [3, 11] | androgen-induced up-regulation of cyclin D1 [3] | P27, fold increase over the basal level [4, 11] | androgen-induced p27 down-regulation [4] | Cdk4, fold increase over the basal level [5, 11] | wound closure [6] | androgen-elicited FAK activation and paxillin phosphorylation [7] | FAK or paxillin phosphorylation when used alone [7] | androgen-induced Co-IP of AR with TRPM8 [8] | AR in IP anti-AR, Average (n=3) ([8]; 10 nM R1881 + compound 1 μM) | TRPM8 in IP anti-AR, Average (n=3) ([8]; 10 nM R1881 + compound 1 μM) | AR in IP anti-AR, Average (n=3) ([8]; compound 1 μM alone) | TRPM8 in IP anti-AR, Average (n=3) ([8]; compound 1 μM alone) | AR/TRPM8 complex assembly in the absence of hormone ([8]; compound 1 μM alone) | androgen-induced increase of intracellular Ca2+ levels [9] | also measured |
| --- | --- | --- | --- | --- | --- | --- | --- | --- | --- | --- | --- | --- | --- | --- | --- | --- | --- | --- |
| c1ccc(COc2ccc3[nH]cc(CCNCc4ccc(Oc5ccccc5)cc4)c3c2)cc1 [Compound 4] | inhibited | significantly inhibited | 0,9 fold | significantly impair | 1,1 fold | significantly impair | 1 fold | did not modify | impaired | did not affect | abolished this association | 1,1 | 0,7 | 1,1 | 0,3 | did not affect | reduced the androgen effect | – |
| COC(=O)[C@H](Cc1c[nH]c2ccccc12)N(Cc1ccccc1)Cc1ccccc1 [Compound 6] | inhibited | significantly inhibited | 0,9 fold | significantly impair | 1 fold | significantly impair | 1,1 fold | did not modify | impaired | did not affect | abolished this association | 1 | 0,6 | 1,1 | 0,3 | did not affect | reduced the androgen effect | Cyclin D1, fold increase over the basal level [3, 12]: 1,2 fold; P27, fold increase over the basal level [4, 12]: 1,1 fold; Cdk4, fold increase over the basal level [5, 12]: 1,1 fold |
| C[C@]1(O)CC[C@H]2[C@@H]3CCC4=CC(=O)CCC4=C3C=C[C@@]21C [Compound R1881, reference compound] | – | – | – | – | – | – | – | – | – | – | – | – | – | – | – | – | – | BrdU incorporation ([1]; 10 nM R1881 (not shown)): did not observe any effect; Cyclin D1, fold increase over the basal level ([3]; 1 nM R1881 alone, Fig 2e): 1,5 fold; Cyclin D1, fold increase over the basal level ([3]; 1 nM R1881 alone, Fig 2f): 1,7 fold; Cyclin D1, fold increase over the basal level ([3]; 10 nM R1881 alone, Fig 2d): 2,7 fold; P27, fold increase over the basal level ([4]; 1 nM R1881 alone, Fig 2e): 0,6 fold; P27, fold increase over the basal level ([4]; 1 nM R1881 alone, Fig 2f): 0,6 fold; P27, fold increase over the basal level ([4]; 10 nM R1881 alone, Fig 2d): 0,4 fold; Cdk4, fold increase over the basal level ([5]; 1 nM R1881 alone, Fig 2e): 1 fold; Cdk4, fold increase over the basal level ([5]; 1 nM R1881 alone, Fig 2f): 1,1 fold; Cdk4, fold increase over the basal level ([5]; 10 nM R1881 alone, Fig 2d): 1 fold; FAK activation and paxillin phosphorylation ([7]; 10 nM R1881 alone, within 10 min): triggered; AR, Average (n=3) [8, 13]: 1; TRPM8, Average (n=3) [8, 13]: 3,1; AR, Average (n=3) ([8]; second group of list): 0,1; TRPM8, Average (n=3) ([8]; second group of list): 0,1; AR, Average (n=3) ([8]; third group of list): 1; TRPM8, Average (n=3) ([8]; third group of list): 0; AR in IP anti-AR, Average (n=3) ([8]; 10 nM R1881 alone, 10 min): 1; TRPM8 in IP anti-AR, Average (n=3) ([8]; 10 nM R1881 alone, 10 min): 2,9; intracellular Ca2+ levels ([9]; 10 nM R1881 alone, within 240 s): increased |
